According to patent publication US20250205342A1, “IRAK DEGRADERS AND USES THEREOF” (Kymera Therapeutics, Inc., priority 2022, published 2025):

Tests used:
IRAK4 [1] = target: T1, IRAK4 (Homo sapiens, UniProt Q9NWZ3); test: IRAK4 degradation in OCI-LY10 (MSD, Meso Scale Discovery); type: cell-based; parameters: endogenous in cells; host or cells: OCI-LY10; settings: OCI-LY10 cells, 24 h
T1 sequence (Q9NWZ3 1-460): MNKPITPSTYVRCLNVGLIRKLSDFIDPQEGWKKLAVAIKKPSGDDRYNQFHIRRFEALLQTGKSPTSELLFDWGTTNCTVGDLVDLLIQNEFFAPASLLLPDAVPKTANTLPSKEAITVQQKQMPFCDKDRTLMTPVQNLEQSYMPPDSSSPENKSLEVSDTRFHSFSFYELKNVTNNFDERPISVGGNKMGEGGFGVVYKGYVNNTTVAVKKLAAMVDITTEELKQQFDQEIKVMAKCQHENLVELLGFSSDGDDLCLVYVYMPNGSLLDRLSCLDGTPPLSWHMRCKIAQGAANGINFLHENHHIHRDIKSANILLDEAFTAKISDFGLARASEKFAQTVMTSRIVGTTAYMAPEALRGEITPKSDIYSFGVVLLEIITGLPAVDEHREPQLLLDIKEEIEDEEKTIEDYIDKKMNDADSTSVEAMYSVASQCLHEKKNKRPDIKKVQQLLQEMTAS
Method: Degradation of IRAK4 in OCI-LY10 was quantitatively measured using Meso Scale Discovery technology. OCI-LY10 cells were seeded in 96-well plates (Corning 3799) with a density of 300,000 cells per well in 100 μL fresh media. Compounds were then added to the assay plates with a final top concentration of 1 to 10 μM in a 1:3 dilution series with total of 8 doses. The assay plates were then incubated for 4 to 24 hours at 37° C. under 5% CO2. The assay plates were then centrifuged for 5 minutes and the cell pellets were treated with 100 μL/well RIPA lysis buffer (Boston BioProducts BP-115D) with proteinase inhibitors. To prepare MSD assay plates (Meso Scale Discovery Catalog number L15XA-3), the plates were coated with 2 ug/mL capture antibody (mouse Anti-IRAK4 antibody [2H9], ab119942) in PBS, at 40 μL/well. The plates were then incubated overnight at […], washed 3 times with 150 μL/well TBST buffer (Cell Signaling Technology, Catalog number 9997S) and blocked with 150 μL/well blocking buffer (Meso Scale Discovery Catalog number R^93BA-4). Cell lysates were then added to MSD assay plates and the plates were incubated at room temperature for 1 hour. The plates were then washed 3 times with 150 μL/well TBST buffer and 25 μL/well primary detection antibody (rabbit Anti-IRAK4 antibody [Y279], from Abcam. Catalog number ab32511, 1 μg/mL). The assay plates were then incubated at room temperature for 1 hour, washed 3 times with 150 μL/well TBST buffer and 25 μL/well secondary detection antibody, SULFO-TAG anti-rabbit antibody were added (anti-rabbit antibody from Meso Scale Discovery, Catalog number R^32AB-1, 1 μg/mL). The assay plates were then incubated at room temperature for 1 hour, washed 3 times with 150 μL/well TBST buffer, and 150 μL/well MSD reading buffer (Meso Scale Discovery catalog number R^92TC-2) was added. The plates were then analyzed by a MSD reader (Meso Scale Discovery, Model Quick Plex SQ 120). The data was then analyzed by software Prism 7.0 from GraphPad and the dose-depended IRAK4 degradation were fit using a three-parameter logistic equation to calculate DC50.
(§1) IRAK4 MSD degradation in OCI-LY10 results at 4 and 24 hrs and hPBMC at 20 hrs for compounds of the invention are presented in Table 3. The letter codes for IRAK4 DC50 include: A (<0.1 μM), B (0.1-1.0 μM), C(>1.0-10.0 μM), D (>10.0 μM or not determined).

IRAK4 [2] = target: T1, IRAK4; test: hPBMC IRAK4 degradation flow assay (monocytes); type: cell-based; parameters: endogenous in cells; host or cells: human PBMCs (monocytes, CD14 positive gate); settings: CD14 positive monocytes, 20 h, read-out: hPBMC monocyte DC50 at 20 h
Method: In the hPBMC IRAK4 degradation flow assay, frozen PBMCs were thawed into RPMI with 10% FBS and allowed to recover. On the same day as thawed, PBMCs were plated in 96 well plate, 90 μL per well. Compound plates were prepared and a 10 point, 5-fold dilution was performed with a final DMSO concentration of 0.1%. Compound 10 μL per well was added, sealed and incubated at 37° C., 5% CO2 for 20 hours (for 4 hour treatment, compounds were prepared and added the following day). Following the treatment incubation period (day 1), 1.6% PFA was added to PBMC plate and placed on plate shaker for 30 seconds and incubated for 10 mins at room temperature. Cells were spun down and washed two times with PBS/0.5% BSA, aspirated to pellet and placed into −80° C. freezer until further processing for flow. On the flow run day, PBMC plates were thawed and samples were transferred to PCR plates. The pre-perm staining cocktail (CD3 Ax488/CD8 BUV805/CD14 BUV395/CD16/56 BV711/CD19 BV785) was added to samples and incubated for 30 minutes at room temperature. Samples were washed two times and permeabilized with methanol for 10 minutes at 4° C. Samples were washed two times and the post-perm staining cocktail (CD4 PE/IRAK4 Ax647 BD #560315) was added and incubated for 30 minutes at room temperature. Samples were washed two times with PBS/BSA and run on a BD LSRFortessa. Mononuclear cells are gated by SSCH/FSCH and single cells. Monocytes are then gated through CD14 positive gate and lymphocytes are gated through CD14 negative gate. To determine absolute DC50 and max degradation values, MFI values were normalized to DMSO max and 20 hour 10 µM min control. Twenty hour dose curves were calculated using a 4 parameter logistic regression curve fit, no constraints (Top doses were removed if hook effects were observed and the bottom was constrained to 0).
as §1

Row | SMILES | DC50 (IRAK4 [1]) [µM] | DC50 (IRAK4 [2]) [µM]
1 | CC(C)(O)c1cc2nn([C@H]3CC[C@H](CNCCCCCCCCCc4ccc5c(-c6cccc(C(=O)Nc7ccc(=O)n(CC(=O)O)c7)c6)cncc5c4)CC3)cc2cc1NC(=O)c1cccc(C(F)(F)F)n1 [Compound I-53] | > 10 | > 10
2 | COC(=O)Cn1cc(NC(=O)c2cccc(-c3cncc4cc(CCCCCCCCCNC[C@H]5CC[C@H](n6cc7cc(NC(=O)c8cccc(C(F)(F)F)n8)c(C(C)(C)O)cc7n6)CC5)ccc34)c2)ccc1=O [Compound I-55] | > 10 | > 10
3 | COC(=O)Cn1cc(NC(=O)c2cccc(-c3cncc4c(CCCCCCNC[C@H]5CC[C@H](n6cc7cc(NC(=O)c8cccc(C(F)(F)F)n8)c(C(C)(C)O)cc7n6)CC5)cccc34)c2)ccc1=O [Compound I-56] | > 10 | > 10
4 | CC(C)(O)c1cc2nn([C@H]3CC[C@H](CNCCCCCCn4ccc5c(C(=O)Nc6ccc(=O)n(CC(=O)O)c6)cccc54)CC3)cc2cc1NC(=O)c1cccc(C(F)(F)F)n1 [Compound I-58] | > 10 | > 10
5 | O=C(O)Cn1cc(NC(=O)c2cccc3c2ccn3CCCCCCNC[C@H]2CC[C@H](n3cc(NC(=O)c4cnn5ccc(N6C[C@H]7C[C@@H]6CO7)nc45)c(C(F)F)n3)CC2)ccc1=O [Compound I-59] | > 10 | > 10
6 | CC(C)(O)c1cc2nn([C@H]3CC[C@H](CNCCCCCCCCCC4=CC(c5cccnc5)CC(C(=O)Nc5ccc(=O)n(CC(=O)O)c5)=C4)CC3)cc2cc1NC(=O)c1cccc(C(F)(F)F)n1 (stereo partly drawn) [Compound I-60] | > 10 | > 10
7 | CCOC(=O)Cn1cc(NC(=O)c2cccc3c2ccn3CCCCCCNC[C@H]2CC[C@H](n3cc(NC(=O)c4cnn5ccc(N6C[C@H]7C[C@@H]6CO7)nc45)c(C(F)F)n3)CC2)ccc1=O [Compound I-61] | > 10 | 1 to 10
8 | COc1cc(-c2ccc(CCCCCCCCCNC[C@H]3CC[C@H](n4cc(NC(=O)c5cnn6ccc(N7C[C@H]8C[C@@H]7CO8)nc56)c(C(F)F)n4)CC3)cc2)ccc1C(=O)Nc1ccc(=O)n(CC(=O)O)c1 [Compound I-62] | > 10 | > 10
9 | COc1cc(-c2ccc(F)c(CCCCCCCCCNC[C@H]3CC[C@H](n4cc5cc(NC(=O)c6cccc(C(F)(F)F)n6)c(C(C)(C)O)cc5n4)CC3)c2)ccc1C(=O)Nc1ccc(=O)n(CC(=O)O)c1 [Compound I-63] | > 10 | > 10
10 | COc1cc(-c2ccc(F)c(CCCCCCCCCNC[C@H]3CC[C@H](n4cc(NC(=O)c5cnn6ccc(N7C[C@H]8C[C@@H]7CO8)nc56)c(C(F)F)n4)CC3)c2)ccc1C(=O)Nc1ccc(=O)n(CC(=O)O)c1 [Compound I-65] | > 10 | > 10

More lines, now with the values ahead:

Row | DC50 (IRAK4 [1]) [µM] | DC50 (IRAK4 [2]) [µM] | SMILES
11 | > 10 | > 10 | CC(C)(O)c1cc2nn([C@H]3CC[C@H](CNCCCCCCc4cccc5c(-c6cccc(C(=O)Nc7ccc(=O)n(CC(=O)O)c7)c6)cncc45)CC3)cc2cc1NC(=O)c1cccc(C(F)(F)F)n1 [Compound I-51]
12 | > 10 | > 10 | CC(C)(O)c1cc2nn([C@H]3CC[C@H](CNCCCCCCc4ccc5c(-c6cccc(C(=O)Nc7ccc(=O)n(CC(=O)O)c7)c6)cncc5c4)CC3)cc2cc1NC(=O)c1cccc(C(F)(F)F)n1 [Compound I-52]
13 | 1 to 10 | 1 to 10 | COC(=O)Cn1cc(NC(=O)c2cccc(-c3cncc4c(CCCCCCCCCNC[C@H]5CC[C@H](n6cc7cc(NC(=O)c8cccc(C(F)(F)F)n8)c(C(C)(C)O)cc7n6)CC5)cccc34)c2)ccc1=O [Compound I-54]
14 | 1 to 10 | 1 to 10 | COC(=O)Cn1cc(NC(=O)c2cccc(-c3cncc4cc(CCCCCCNC[C@H]5CC[C@H](n6cc7cc(NC(=O)c8cccc(C(F)(F)F)n8)c(C(C)(C)O)cc7n6)CC5)ccc34)c2)ccc1=O [Compound I-57]
15 | 1 to 10 | > 10 | CCOC(=O)Cn1cc(NC(=O)c2ccc(-c3ccc(F)c(CCCCCCCCCNC[C@H]4CC[C@H](n5cc6cc(NC(=O)c7cccc(C(F)(F)F)n7)c(C(C)(C)O)cc6n5)CC4)c3)cc2OC)ccc1=O [Compound I-64]
